The target in one test is T1, rat KCC2 (Rattus norvegicus, UniProt Q63633).
T1 sequence (Q63633 1-1139): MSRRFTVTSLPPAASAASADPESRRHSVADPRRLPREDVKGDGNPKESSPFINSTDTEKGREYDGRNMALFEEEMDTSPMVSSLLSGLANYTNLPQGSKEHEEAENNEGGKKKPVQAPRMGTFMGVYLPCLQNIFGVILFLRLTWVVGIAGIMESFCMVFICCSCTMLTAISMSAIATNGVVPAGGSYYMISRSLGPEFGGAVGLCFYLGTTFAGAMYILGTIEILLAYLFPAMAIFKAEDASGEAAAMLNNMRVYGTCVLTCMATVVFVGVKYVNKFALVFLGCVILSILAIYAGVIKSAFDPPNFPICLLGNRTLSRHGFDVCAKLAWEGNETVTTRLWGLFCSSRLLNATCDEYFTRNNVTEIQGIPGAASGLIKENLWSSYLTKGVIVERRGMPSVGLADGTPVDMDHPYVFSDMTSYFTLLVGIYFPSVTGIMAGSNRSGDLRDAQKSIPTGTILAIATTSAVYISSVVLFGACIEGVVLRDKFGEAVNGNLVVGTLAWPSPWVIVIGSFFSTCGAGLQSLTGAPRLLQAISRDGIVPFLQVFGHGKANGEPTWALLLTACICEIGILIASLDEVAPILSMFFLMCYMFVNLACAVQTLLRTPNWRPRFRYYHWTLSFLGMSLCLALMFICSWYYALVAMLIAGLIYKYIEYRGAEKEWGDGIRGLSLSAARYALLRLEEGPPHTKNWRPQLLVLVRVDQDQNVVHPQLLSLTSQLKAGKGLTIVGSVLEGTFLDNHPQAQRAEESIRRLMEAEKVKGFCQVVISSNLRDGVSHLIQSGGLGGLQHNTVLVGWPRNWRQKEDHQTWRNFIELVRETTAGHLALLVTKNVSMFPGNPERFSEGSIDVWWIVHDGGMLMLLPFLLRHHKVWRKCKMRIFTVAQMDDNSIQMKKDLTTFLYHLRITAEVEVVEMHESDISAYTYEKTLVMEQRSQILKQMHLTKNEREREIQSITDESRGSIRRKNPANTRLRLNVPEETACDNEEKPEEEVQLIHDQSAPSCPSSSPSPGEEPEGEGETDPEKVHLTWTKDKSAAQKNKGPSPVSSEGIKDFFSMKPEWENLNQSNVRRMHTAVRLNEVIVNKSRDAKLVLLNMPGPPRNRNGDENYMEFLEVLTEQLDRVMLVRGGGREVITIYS
Briefly: […] influx into Xenopus oocytes. The format is cell-based. Particulars: hypotonic medium, 79 mM chloride, 2 mM RbCl; 0.01 mM ouabain; inhibitor.

For the next test, the target named is T2, C. elegans KCC-2 (Caenorhabditis elegans, UniProt G5EEC9).
T2 sequence (G5EEC9 1-1079): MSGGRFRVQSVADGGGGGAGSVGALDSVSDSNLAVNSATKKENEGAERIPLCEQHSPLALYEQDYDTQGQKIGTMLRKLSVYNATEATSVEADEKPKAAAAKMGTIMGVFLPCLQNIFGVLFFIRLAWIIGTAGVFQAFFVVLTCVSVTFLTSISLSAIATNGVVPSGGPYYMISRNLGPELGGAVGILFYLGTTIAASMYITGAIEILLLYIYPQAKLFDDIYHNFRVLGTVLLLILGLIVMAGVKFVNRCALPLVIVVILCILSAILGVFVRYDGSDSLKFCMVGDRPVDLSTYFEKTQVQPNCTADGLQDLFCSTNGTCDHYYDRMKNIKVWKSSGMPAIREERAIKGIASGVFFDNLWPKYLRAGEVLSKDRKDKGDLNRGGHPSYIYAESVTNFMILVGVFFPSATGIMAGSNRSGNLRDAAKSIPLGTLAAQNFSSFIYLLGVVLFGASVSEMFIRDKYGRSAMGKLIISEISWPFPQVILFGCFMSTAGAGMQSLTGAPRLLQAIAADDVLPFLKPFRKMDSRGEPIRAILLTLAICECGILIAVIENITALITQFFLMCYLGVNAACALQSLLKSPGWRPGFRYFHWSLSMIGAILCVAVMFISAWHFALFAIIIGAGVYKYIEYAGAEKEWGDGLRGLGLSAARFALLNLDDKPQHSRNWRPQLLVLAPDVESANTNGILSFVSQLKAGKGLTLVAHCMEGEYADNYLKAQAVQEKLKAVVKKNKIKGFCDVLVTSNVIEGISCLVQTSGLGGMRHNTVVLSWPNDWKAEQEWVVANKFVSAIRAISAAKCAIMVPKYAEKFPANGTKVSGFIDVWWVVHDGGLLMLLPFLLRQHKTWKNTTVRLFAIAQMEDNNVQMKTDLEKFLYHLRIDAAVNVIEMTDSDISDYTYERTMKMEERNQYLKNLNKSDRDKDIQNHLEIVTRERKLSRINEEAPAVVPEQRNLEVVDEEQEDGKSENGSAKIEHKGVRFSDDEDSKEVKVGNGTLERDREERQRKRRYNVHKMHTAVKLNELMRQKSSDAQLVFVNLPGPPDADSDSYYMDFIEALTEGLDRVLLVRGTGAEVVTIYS
Briefly: […] influx into Xenopus oocytes. It is filed as cell-based.

Data on 1 molecule can be found in paper PMC2737711 (The Journal of neuroscience : the official journal of the …, 2009).

What is called IC50 is the midpoint of a concentration-inhibition curve.

For `CCCCNc1cc(C(=O)O)cc(S(N)(=O)=O)c1Oc1ccccc1` [bumetanide], the IC50 at rat KCC2 worked out at 72 ± 16 µM; against C. elegans KCC-2 it was 32 ± 3 µM.
